# Laboratory results taken from article PMC10587737, “Dracorhodin targeting CMPK2 attenuates inflammation: A novel approach to sepsis therapy” (Clinical and Translational Medicine, 2023).
# How the values were obtained:
# [1] = molecular target: T1, purified CMPK2 protein (WT) (Homo sapiens, UniProt Q5EBM0); test: Microscale thermophoresis (MST) binding to CMPK2
# T1 construct: the N‐terminus was truncated by 22 amino acids; 6xHis (C); made in house; host or cells: FreeStyle 293-F cells (pTT5 vector)
# T1 sequence (Q5EBM0 22-449): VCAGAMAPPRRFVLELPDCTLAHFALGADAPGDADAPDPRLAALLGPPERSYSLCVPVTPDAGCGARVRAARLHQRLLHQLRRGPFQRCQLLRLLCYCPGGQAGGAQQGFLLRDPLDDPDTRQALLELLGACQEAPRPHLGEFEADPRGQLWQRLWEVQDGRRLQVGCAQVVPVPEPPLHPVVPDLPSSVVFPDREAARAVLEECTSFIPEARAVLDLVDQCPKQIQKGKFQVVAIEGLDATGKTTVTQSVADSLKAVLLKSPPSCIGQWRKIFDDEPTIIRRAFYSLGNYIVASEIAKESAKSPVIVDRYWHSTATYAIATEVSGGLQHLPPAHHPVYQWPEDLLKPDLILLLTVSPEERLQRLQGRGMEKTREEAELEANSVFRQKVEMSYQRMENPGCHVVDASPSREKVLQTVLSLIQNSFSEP
# Method: The MST assay is an emerging technique used to quantitatively elucidate binding. The binding parameter between CMPK2 and DP was measured using MST on a Monolith NT.115 system (Germany). CMPK2 was fluorescently labeled with the Monolith NT Protein Labeling Kit RED (L018, NanoTemper Technologies GmbH, Munich, Germany) according to the manufacturer's instructions. The Monolith NT.115 system was used with Monolith NT.115 standard capillaries (M0-[…]). MST assay buffer was used to dilute the labeled CMPK2 to 2 μM. Sixteen dilutions (1:1) of the ligand were prepared using the same buffer, starting at a concentration of 10 μM. An equivalent volume of the labeled CMPK2 was added to each of the dilutions and loaded into Monolith NT.115 standard treated capillaries (Nano Temper Technologies), which were used to measure the MST trace at a temperature of 27°C. The experimental parameters were adjusted to medium MST power and 40% LED/excitation power. The binding and dissociation constants (Kd) were evaluated and calculated using M0-Affinity analysis software version 2.1.3 (Nano Temper Technologies) for the ligand.
# [2] = molecular target: CMPK2^Lys282 protein; test: MST binding to CMPK2 Lys282 mutant; set-up: species or system human; conditions: Lys282 mutated
# Method: (§1) Human CMPK2 and K265, K282 and K320 mutated CMPK2 cDNA were cloned and inserted into the pTT5 vector, and the constructed plasmid was amplified by the DH5α strain. The C‐terminus of the cDNA was fused with a 6× His tag, and the N‐terminus was truncated by 22 amino acids (Figure 1B–F and Supporting Information Figure S5A,B). When the free‐style 293‐F cells reached the proper density, approximately 1 mg of expression plasmid was premixed with 3 mg polyethylenimine in UltraFectin medium and incubated prior to transfection. This mixture was then added to the appropriate amount of fresh cell culture medium, incubated for 30 min and collected after 48 h.
# (§2) The MST assay is an emerging technique used to quantitatively elucidate binding. The binding parameter between CMPK2 and DP was measured using MST on a Monolith NT.115 system (Germany). CMPK2 was fluorescently labeled with the Monolith NT Protein Labeling Kit RED (L018, NanoTemper Technologies GmbH, Munich, Germany) according to the manufacturer’s instructions. The Monolith NT.115 system was used with Monolith NT.115 standard capillaries (M0-K022). MST assay buffer was used to dilute the labeled CMPK2 to 2 μM. […] The binding and dissociation constants (Kd) were evaluated and calculated using M0-Affinity analysis software version 2.1.3 (Nano Temper Technologies) for the ligand.
# [3] = molecular target: CMPK2^Lys320 protein; test: MST binding to CMPK2 Lys320 mutant; set-up: species or system human; conditions: Lys320 mutated
# Method: as §1, §2
# [4] = tested on: CMPK2 expression in BMDMs; test: CMPK2 protein and mRNA expression in BMDMs; format: cell-based, mouse
# Method: Cells were lysed in NP-40 buffer containing a protease inhibitor cocktail (Roche, 11836153001) and a phosphatase inhibitor cocktail (Sigma-Aldrich, P5726). Protein concentrations were quantified using a BCA Protein Assay Kit (Beyotime, 5000T P0011). Equal amounts of protein were separated by SDS-PAGE and transferred onto nitrocellulose membranes. The membranes were then incubated with antibodies against CMPK2, NLRP3, ASC, pro-caspase-1, pro-IL-1β, GAPDH, caspase-1 and IL-1β, followed by incubation with the appropriate secondary HRP-conjugated antibodies and development with ECL.
# [5] = tested on: LPS-induced septic shock in C57BL/6 mice; test: LPS-induced septic shock model; format: in vivo, mouse
# Method: Sepsis was induced by intraperitoneal injection of 8- to 12-week-old gender-matched wild-type mice with LPS (E. coli O111:B4, Sigma-Aldrich) at 20 mg per kg body weight. Mouse survival was monitored every 1 h after injection for a total of 72 h. In a separate experiment, mice were treated with the same dose of LPS, and immune sera were collected 6 h post injection. Then, the abdominal cavity was washed with PBS. The levels of IL-1β and TNF-α in serum and peritoneal lavage ﬂuid were determined by ELISA. Then, the livers, kidneys and lungs were immediately removed and washed in ice-cold PBS. They were fixed with 4% paraformaldehyde, which was used for hematoxylin-eosin (H&E), Masson staining and Sirius red staining.
# [6] = molecular target: CMPK2 mutant at K282; test: ADP-GLO kinase activity of CMPK2 K282 mutant; format: biochemical, human
# Method: as §1
# CMPK2 activity was measured by the ADP‐GLO kinase assay according to the guidelines specified in the manufacturer's instructions. In the activity assay, the amount of ADP formed in the CMPK2 reaction was equal to the ATP consumption and proportional to the increase in luminescence generated in the luciferase reaction, which is the experimental principle shown in Figure 1I.
# [7] = molecular target: T2, CMPK2 (Homo sapiens, UniProt Q5EBM0); test: Ultrafiltration-affinity mass spectrometry screening (FC, CMPK2 vs BSA); format: binding; set-up: the N‐terminus was truncated by 22 amino acids; 6xHis (C); made in house; host or cells: FreeStyle 293-F cells (pTT5 vector)
# T2 sequence (Q5EBM0 22-449): T1 sequence (Q5EBM0 22-449)
# Method: The purified kinase CMPK2 was incubated with the six cocktails for 30 min at 37°C in a suitable buffer solution. In the compound cocktail, each compound concentration was 1 μM, and the concentration of the kinase CMPK2 was set at 5 μM. Each of the above incubation solutions was added to a 0.5 mL 10 kDa ultrafiltration tube (Amicon μltra‐0.5 10K Centrifugal Filter Devices, Millipore), and four experimental replicates were conducted for each CMPK2 and BSA pair. The 10 kDa ultrafiltration tube was centrifuged with the incubation solution at 13 000 × g for 20 min at 4°C. Centrifugation was stopped when the solution volume was approximately 100 μL, and then the mixture was washed five times with cold ammonium acetate (150 mM, pH 7.5). For affinity selection, 100 μL of the mixture was transferred after centrifugation and rinsed into a new eppendorf tube. […] The protein precipitate was discarded and the liquid was concentrated with a N2 stream. The residue was re‐dissolved in 50% methanol before injection. BSA samples were processed in a manner parallel to that of CMPK2 samples.
# Sample measurement was detected by using an UHPLC instrument (Shimadzu) combined with a Triple TOF 5600^+ MS (SCIEX). Chromatographic separation was conducted with an Acquity UPLC BEH C18 column (1.7 μm, 2.1 × 100 mm, Waters) at a temperature maintained at 40°C and a flow rate of 0.3 mL/min, with mobile phases of water–0.1% formic acid (A) and acetonitrile (B). The linear gradient elution profile was as follows: 0−2 min, 5% B; 2−12 min, 5−30% B; 12−25 min, 30−90% B; 25−30 min, 90% B; and re‐equilibration for 5 min. Subsequently, the gradient was recovered to the initial conditions at the final 1 min. Whether it was a test sample or a quality control (QC) sample, each injection volume was 5 μL.
# Briefly, the chromatographic peaks of each bound ligand were extracted using PeakView with identification criteria of precise mass measurement deviation and retention time tolerance of 5 ppm and 0.1 min, respectively. The MS response of each ligand was represented with the integrated peak area extracted by the corresponding extract ion chromatogram. The effective hits were selected on the basis of fold change (FC) value ≥ 2, p value < .05 and cyclic voltammetry (CV) ≤ 30% and were identified as candidate ligands of CMPK2. By extracting the m/z of individual standards from the acquired MS/MS spectrum, the decimal point of RT was used to distinguish the ambiguous compound peaks in the cocktails.
# The experimental samples were injected into a UHPLC‐Q‐TOF‐MS system. First, total ion chromatograms (TIC) reflected the general overview of all samples (Supporting Information Figure S2A). […] Among the groups, each sample with a CV more than 30% was considered an abnormal sample and was not considered in the subsequent statistical analysis. In addition, the p value of each sample between the groups was calculated by MetaboAnalyst 5.0, and the significance of differences was determined. In the ultrafiltration‐affinity mass spectrometry profiling, we calculated FC, which is defined as the ratio of the MS response between the compound detected in the CMPK2 and BSA incubation system (Supporting Information Figure S2C,D). […] To select small‐molecule ligands with strong affinity, we determined the screening criteria to be FC ≥ 2. Affinity MS analysis generated a set of raw data, and the compounds that met the pre‐judgment criteria (FC ≥ 2, p < .05) were selected as compound hits (Supporting Information Figure S2).
# [8] = myeloid tissue, western blot, DP 40 mg/kg
# [9] = serum and peritoneal lavage fluid, DP 2 h pre-treatment, 6 h LPS
structure (smiles),measurement,setting,value
"COc1c2ccc(-c3ccccc3)oc-2cc(=O)c1C [compound 73, Dracohodin perochlorate]",Kd,[1],350 ± 34.9 nM
same,binding (Kd by MST),[2],no binding
same,binding (Kd by MST),[3],no binding
same,mRNA expression level of Cmpk2,[4],decreased
same,protein expression of CMPK2,"[4]; DP 2.5, 5, 10 μM",dose‐dependently inhibited
same,blood pressure (hypotension),[5]; BIOPAC System-MP160,could improve hypotension
same,heart rate,[5]; BIOPAC System-MP160,no significant difference
same,blood pressure changes,[5]; BP-2010A instrument,not captured significant differences
same,survival rate,[5]; DP 40 mg/kg given before or after sepsis outbreak,significantly improved
same,survival (lethal inflammation),"[5]; DP 10, 20, 40 mg/kg 2 h before LPS 20 mg/kg i.p., 72 h",suppressed the lethal inflammation
same,LPS-induced inflammatory infiltration and fibrosis,"[5]; liver, lung, kidney histopathology, DP 10, 20, 40 mg/kg",distinctly alleviated
same,"body weight, body temperature and heart rate",[5]; model group vs drug administration groups,no significant difference
same,CMPK2 expression in vivo,[5]; [8],markedly blocked
same,activated caspase-1,[5]; [8],prevents the increase
same,IL-1β production,[5]; [9],reduced
same,TNF-α production,[5]; [9],did not affect
same,kinase activity of the mutant at K282,[6],slight inhibitory effect
same,binding between dUMP and CMPK2,"[7]; affinity mass spectrometry competition, Figure S3C",interfered
same,FC Negative,"[7]; negative ion mode, ratio of MS response CMPK2 vs BSA",3.00
same,FC Positive,"[7]; positive ion mode, ratio of MS response CMPK2 vs BSA",4.32
